Laboratory results reported in patent US20080015224A1, “Nitroxide superoxide dismutase mimetics to treat extracellular superoxide dismutase deficiencies” (priority 2006, published 2008).
Entries after “also recorded” stand apart in the source; their conditions may differ.

Legend:
[1] = system: O2−. generated by xanthine plus xanthine oxidase; assay: Inhibition of O2−. generated by xanthine-xanthine oxidase in vitro (SOD mimetic activity, lucigenin chemiluminescence); assay type: biochemical; conditions: for Maximum inhibition, %: O2−. generated by xanthine-xanthine oxidase in vitro, means ± SE, 5 studies; for O2−. generated by a xanthine-xanthine oxidase reaction extinguished: tested in PBS at 10^−4 M
Method: The SOD activities of Ns were evaluated in vitro for their efficacy in dampening O2^−. generated by xanthine (25 μmol/l) plus xanthine oxidase (9 IU/ml). Their lipid solubility was assessed by shaking the Ns in a 50:50 mixture of PBS (Ambion, Austin, Tex.) and chloroform (CHCl3; EM Science, Gibbstown, N.J.), taking an aliquot of the PBS phase, evaporating the CHCl3phase to dryness, reconstituting it in PBS, and assessing the SOD activities in the two solutions. O2^−. was assessed by chemiluminescence with 5 μM lucigenin (AutoLumatPlus LB 953; EG&G, Berthold, Germany). The reduction in the stable peak value for chemiluminescence for each N, relative to vehicle, defined the SOD mimetic activity.
SOD activity by the nitroxides was assessed in vitro (Table 1). […] The ratio of the activity that partitioned into CHCl3 compared with PBS was examined.

[2] = system: spontaneously hypertensive rat (SHR); assay: Acute antihypertensive response (MAP, HR) to graded intravenous doses in anesthetized SHR; assay type: in vivo; conditions: for acute change in MAP and HR: graded intravenous doses (nitroxides 17-270 μmol/kg; SOD 34-540 U/kg)
Method: Experiments were approved by the Georgetown University Animal Care and Use Committee. Male SHR weighing 250-350 g (Taconic, Germantown, N.Y.) were anesthetized with thiobutabarbital (Inactin; Sigma, St. Louis, Mo.) (10 mg/100 g) after halothane (Halocarbon Laboratories, River Edge, N.J.) induction. Rats received 0.9% NaCl at 2 ml/h IV up to the time of receiving drugs to maintain euvolemia. A femoral artery was cannulated with polyethelene (PE)-50 tubing connected to a digital blood pressure analyzer (Micro-Med, Louisville, Ky.). Animals were equilibrated for 45 min. Thereafter, a nitroxide (17 μmol/kg) was infused intravenously over 10 s. The mean arterial pressure (MAP) and heart rate (HR) were recorded over the first 5 min and at 10 and 15 min. This was followed by doses of 54, 72, 174, and 270 μmol/kg under similar conditions. The same protocol was followed with each nitroxide: T, 4-oxo-tempo (OT), 4-amino-tempo (AT), 3-carboxy-peroxyl (3-CTPY) (Aldrich, Milwaukee, Wis.), 3-carbomyl-proxyl (3-CP) (Sigma), and 4-trimethylammonium-2,2,6,6,-tetramethylpiperidine-1-oxyl iodide (CAT-1) (Molecular Probes, Eugene, Oreg.) (FIG. 3). Doses of bovine Cu/Zn SOD (MW 32,500; Oxis Research, Portland, Oreg.) were selected that had equivalent SOD mimetic activity in vitro to the doses of T used for intravenous studies: 34, 110, 140, 260, 350, and 540 U/kg. SOD injection followed a similar protocol to the nitroxides and was compared with vehicle-injected rats. Additional rats received injections of previously boiled SOD as a further control group. Six rats were studied in each group.
The mean±SE changes in MAP and HR were calculated from the individual dose-response relations. The responsiveness was the maximum effect, and the sensitivity was the expected dose for ED50. Data were analyzed by ANOVA with post hoc testing by the Dunnett test, where appropriate. Statistical significance was taken as P<0.05.

[3] = system: O2−. generated by xanthine plus xanthine oxidase; assay: Inhibition of O2−. generated by xanthine-xanthine oxidase in vitro (SOD mimetic activity, lucigenin chemiluminescence); assay type: biochemical; conditions: means ± SE
[4] = system: mesenteric resistance arteries (MRAs) from EC-SOD −/− and +/+ mice; assay: Contraction of isolated mesenteric resistance arteries (myograph); conditions: vessels from EC-SOD −/− mice; bath addition, 20 min; tempol 10^−4 M, PEG-SOD 100 units·ml^−1, catalase 300 units·ml^−1
Method: FIG. 19: Responses of mouse isolated mesenteric resistance vessles to endothelin-1: comparison of EC-SOD +/+ with −/−. (A) Contraction to endothelin-1, (B) Superoxide production with endothelin-1. Mean±SEM values (n=6-8 per group). Response to endothelin-1 in vessels incubated for 20 min with vehicle, tempol (10^−4 M), PEG-SOD (100 units·ml^−1), and catalase (300 units·ml^−1). Compared to vehicle, ***, p<0.005.
(§1) Reactive oxygen spice (ROS) and endothelin-1 (ET-1) contribute to angiotensin-induced hypertension. We used isolated mesenteric resistance arteries (MRAs) from EC-SOD knockout (−/−) mice (n=10) and EC-SOD wild type (+/+) mice (n=10), as a model to investigate the hypothesis that microvascular ET-1 and superoxide anion (O2.^−) interact to enhance contractility. Tension and O2.^− were quantitated in real time in dihydroethidium (DHE)-loaded MRAs in a myograph equipped with a dual-emission photon detection fluorescence system to measure ethidium (Eth): DHE ratio (E/D) as a direct readout of O2.^− activity. […] PEG-SOD normalized augmented ET-1 contraction (64±4% vs 71±3%; p=ns) and prevent an increase in E/D ratio in MRAs from −/− (0.6±0.5 vs 0.5±0.8, p=ns). In summary, ET-1 generates microvascular O2.^− that enhances its vasoconstrictive action.

[5] = system: mesenteric resistance arteries (MRAs) from EC-SOD −/− and +/+ mice; assay: Superoxide as ethidium:DHE ratio (E/D) in dihydroethidium-loaded mesenteric resistance arteries; conditions: dihydroethidium-loaded vessels from EC-SOD −/− mice; tempol 10^−4 M, PEG-SOD 100 units·ml^−1, catalase 300 units·ml^−1
Excerpt: as §1
A current study contrasts the responses to endothelin-1 (ET-1) in mesenteric resistance vessels from EC-SOD (−/−) and (+/+) mice. […] Parallel studies of vascular superoxide in dihydroethidium-loaded vessels show enhanced conversion to ethidium, indicating enhanced superoxide formation, in vessels from EC-SOD −/−mice. […] We conclude that in the model system of SOD deficiency caused by gene deletion of EC-SOD in the mouse, tempol can correct enhanced contractions and enhanced oxidative stress. It is thereby envisioned as being effective in preventing hypertension and cardiovascular disease.

[6] = system: cremasteric microvessels in the anesthetized mouse; assay: In vivo EDRF (acetylcholine-induced vasodilation) responses of cremasteric microvessels; conditions: 10^−4 M tempol in superfusate; EC-SOD −/− mice and mice infused with Ang II 400 ng·kg^−1·min^−1 sc × 12 days
Method: FIG. 18: In vivo EDRF responses of cremasteric vessels are impaired by EC-SOD knockout or prolonged angiotensin II infusion but are restored by superfusion of tempol. Mean±SEM (n=c6 per group). Ang II infusion at 400 ng·kg^−1·min^−1 sc×12 days. T, 10^−4 M tempol in superfusate. Basal diameter 39±0.4 μm (similar in each group). Compared to EC-SOD +/+; *, p<0.05. Compared to vehicle infusion: †, p<0.05. All effects of tempol, p<0.005.
Our current studies have shown that the SOD mimetic drug tempol, when superfused over cremasteric microvessels in the anesthetized mouse, increases that acetylcholine-induced vasodilation response. This effect of acetylcholine is reduced in the EC-SOD (−/−) mouse and in normal and EC-SOD (−/−) mice infused for 12 days with Ang II which causes oxidative stress that bioinactivates nitric oxide which is a mediator of this response. […] This is important since acetylcholine-induced vasodilation is a test of endothelium-dependent relaxation (EDR). Defects in EDR are related to oxidative inactivation of nitric oxide and underlie many CVD risk factors. Thus defects in EDR could be the focus for abnormal vascular responses and increased CVD events in subjects with the R213G SNIP of EC-SOD.

[7] = measured previously in the literature; cited from earlier work
cell membranes = conditions: cited from earlier work

SMILES | Maximum inhibition, % [1] [%] | O2−. generated by a xanthine-xanthine oxidase reaction extinguished [1] | acute change in MAP and HR [2] | ED50, μmol/kg [3] | maximal reduction in MAP (comparison between compounds) ([2]; graded intravenous doses) | time to maximum reductions in MAP and HR ([2]; graded intravenous doses) [min] | effect on enhanced contractions to ET-1 [4] | effect on enhanced superoxide formation with ET-1 [5] | acetylcholine-induced vasodilation (EDRF) response [6] | redox midpoint potential E1/2 [7] [mV] | permeation of cells (cell membranes)
CC1(C)CC(C(=O)O)C(C)(C)N1[O] (centres unmarked) [Compound 3-CTPY, 3-carboxy-peroxyl] | 15 ± 3 | significantly lower fraction | ineffective; also recorded: did not | ∞† |  |  |  |  |  |  | 
CC1(C)CC(O)CC(C)(C)N1[O] [T, 4-hydroxy-2,2,6,6-tetramethyl-1 piperidinyloxy] | 92 ± 1 | 92% | decreased MAP and HR acutely |  | greater maximal fall in MAP with T than CAT-1; also recorded: greatest reductions in MAP | ≤ 1 | normalized | normalized | restored to normal | 800 | permeates cell membranes freely
